Assays:
Assay in all cases: relative viability (nuclei count vs DMSO), 5 days (fraction); higher = more cells survive
[1] = compound: CCn1c(-c2nonc2N)nc2cnc(Oc3cccc(NC(=O)c4ccc(OCCN5CCOCC5)cc4)c3)cc21 + CCNC(=O)c1noc(-c2cc(C(C)C)c(O)cc2O)c1-c1ccc(CN2CCOCC2)cc1 [Luminespib] (partner 0.01 µM)
Summary of the method: (§1)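 Lung cancer cell lines in 1536-well plates got either a single drug or a fixed anchor-drug dose together with five library-drug doses (not always all listed) in √10 steps, by pin tool, on the day after seeding. Nuclei were counted after 5 days, and relative viability is the treated-to-vehicle ratio of nuclei counts. Values are medians of duplicate plates.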

Mirin + AZD7762 = compound: N=C1NC(=O)/C(=C/c2ccc(O)cc2)S1 [Mirin] + NC(=O)Nc1cc(-c2cccc(F)c2)sc1C(=O)N[C@H]1CCCNC1 [AZD7762] (partner 0.2 µM)
Summary of the method: as §1

[2] = compound: CCn1c(-c2nonc2N)nc2cnc(Oc3cccc(NC(=O)c4ccc(OCCN5CCOCC5)cc4)c3)cc21 + Cc1cc(Nc2cc(N3CCN(C)CC3)nc(Sc3ccc(NC(=O)C4CC4)cc3)n2)n[nH]1 [Tozasertib] (partner 0.1 µM)
Summary of the method: as §1

[3] = compound: CCC1=CN=CN=C1N2CCN(CC2)CC3=NC4=C(N3)C=C(C=C4)C(F)(F)F + Cc1cc(Nc2cc(N3CCN(C)CC3)nc(Sc3ccc(NC(=O)C4CC4)cc3)n2)n[nH]1 [Tozasertib] (partner 0.1 µM)
Summary of the method: as §1

Cell Line | relative viability ([1]; first compound 0.04 µM) | relative viability ([1]; first compound 0.1265 µM) | relative viability ([1]; first compound 0.4 µM) | relative viability ([1]; first compound 1.265 µM) | relative viability ([1]; first compound 4 µM) | relative viability (Mirin + AZD7762; first compound 0.25 µM) | relative viability (Mirin + AZD7762; first compound 0.7906 µM) | relative viability (Mirin + AZD7762; first compound 2.5 µM) | relative viability (Mirin + AZD7762; first compound 7.906 µM) | relative viability (Mirin + AZD7762; first compound 25 µM) | relative viability ([2]; first compound 0.04 µM) | relative viability ([2]; first compound 0.1265 µM) | relative viability ([2]; first compound 0.4 µM) | relative viability ([2]; first compound 1.265 µM) | relative viability ([2]; first compound 4 µM) | relative viability ([3]; first compound 0.04 µM) | relative viability ([3]; first compound 0.1265 µM) | relative viability ([3]; first compound 0.4 µM) | relative viability ([3]; first compound 1.265 µM) | relative viability ([3]; first compound 4 µM)
NCI-H1355 | 0.744 | 0.742 | 0.672 | 0.759 | 0.797 | 0.776 | 0.912 | 0.845 | 0.66 | 0.799 | 0.654 | 0.652 | 0.582 | 0.563 | 0.569 | 0.566 | 0.513 | 0.495 | 0.413 | 0.421
EKVX | 1.03 | 0.807 | 0.898 | 0.765 | 0.645 | 0.631 | 0.709 | 0.771 | 0.727 | 0.689 | 0.423 | 0.473 | 0.46 | 0.216 | 0.265 | 0.477 | 0.367 | 0.346 |  | 0.445
HCC-78 |  |  |  |  |  | 0.583 | 0.863 | 0.671 | 0.658 | 0.68 | 0.589 |  |  | 0.532 | 0.519 | 0.572 | 0.549 | 0.446 | 0.434 | 0.376
NCI-H1563 | 1.23 | 0.514 | 0.482 | 0.466 | 0.48 |  |  |  |  |  |  |  |  |  |  |  |  |  |  | 
COR-L 105 | 0.657 | 0.282 | 0.592 | 0.445 | 0.247 |  |  |  |  |  | 0.339 | 0.3 | 0.308 | 0.308 | 0.308 | 0.374 | 0.34 | 0.327 | 0.395 | 0.379
NCI-H2009 | 1 | 0.804 | 0.822 | 0.599 | 0.394 |  |  |  |  |  | 0.745 | 0.635 | 0.53 | 0.331 | 0.275 | 0.778 | 0.698 | 0.727 | 0.746 | 0.678
NCI-H1703 |  |  |  |  |  | 0.115 | 0.148 | 0.146 |  | 0.117 |  |  |  |  |  |  |  |  |  | 
NCI-H1650 | 0.248 | 0.198 | 0.196 | 0.191 | 0.183 |  |  |  |  |  | 0.469 | 0.394 | 0.386 | 0.223 | 0.25 | 0.482 | 0.471 | 0.273 |  | 0.331
NCI-H1792 | 0.477 | 0.21 | 0.47 | 0.299 | 0.308 | 0.729 | 0.803 | 0.826 | 0.636 | 0.77 |  |  |  |  |  |  |  |  |  | 
COR-L23 | 0.62 | 0.463 | 0.447 | 0.15 | 0.106 |  |  |  |  |  | 0.185 | 0.165 | 0.154 | 0.12 | 0.135 | 0.219 | 0.207 | 0.201 | 0.157 | 0.183
NCI-H1623 | 0.527 | 0.555 | 0.509 | 0.49 | 0.706 |  |  |  |  |  | 0.473 | 0.396 | 0.369 | 0.346 | 0.457 | 0.368 | 0.422 | 0.38 | 0.423 | 0.425
NCI-H661 | 0.995 | 0.934 | 0.936 | 0.739 | 0.642 |  |  |  |  |  | 0.377 | 0.367 | 0.37 | 0.372 | 0.266 | 0.371 | 0.348 | 0.362 | 0.322 | 0.366
SK-LU-1 | 0.231 | 0.155 | 0.189 | 0.159 | 0.172 |  |  |  |  |  | 0.402 | 0.371 | 0.29 | 0.238 | 0.218 | 0.326 | 0.334 | 0.362 | 0.335 | 0.274
HCC-366 |  |  |  |  |  | 0.313 | 0.541 | 0.28 | 0.262 | 0.364 | 0.134 | 0.105 | 0.0696 | 0.0938 | 0.0791 | 0.138 | 0.148 | 0.131 | 0.143 | 0.0757
SW 1573 | 0.251 | 0.207 | 0.123 | 0.196 | 0.137 |  |  |  |  |  | 0.255 | 0.149 | 0.12 | 0.145 | 0.0839 | 0.205 | 0.214 | 0.181 | 0.153 | 0.203
NCI-H1648 |  |  |  |  |  | 0.722 |  | 0.652 | 0.641 | 0.576 | 0.415 | 0.833 | 0.88 | 0.713 | 0.547 | 0.538 | 0.429 |  | 0.362 | 0.345
NCI-H2023 | 0.794 | 0.72 | 0.67 | 0.381 | 0.332 |  |  |  |  |  | 0.363 | 0.334 | 0.277 | 0.16 | 0.136 | 0.33 | 0.383 | 0.343 | 0.297 | 0.325
SK-MES-1 | 0.728 | 0.681 | 0.525 | 0.485 | 0.37 |  |  |  |  |  | 0.811 | 0.657 | 0.518 | 0.228 | 0.21 | 0.893 | 0.872 | 0.797 | 0.918 | 0.865
NCI-H520 | 0.232 | 0.215 | 0.217 | 0.197 | 0.183 |  |  |  |  |  | 0.419 | 0.368 | 0.359 | 0.345 | 0.378 | 0.423 | 0.432 | 0.403 |  | 0.452
NCI-H2228 | 0.118 | 0.109 | 0.133 | 0.162 | 0.124 |  |  |  |  |  | 0.297 | 0.28 | 0.247 | 0.208 | 0.166 | 0.252 | 0.249 | 0.22 | 0.335 | 0.253

From the supplement of paper PMC10307832
